Water solubility data for one molecule are collected here from patent US7538092B2, “Pharmaceutically active oligosaccharide conjugates” (Fresenius Kabi Deutschland GmbH, priority 2002, dated 2009).

The structures appear in SMILES notation.

The nature of this data set: Determination of solubility in water / PBS. In kind it is physicochemical. Particulars: only using solution with extreme pH values.

As to `C[C@@H]1[C@H](O)[C@@H](C)/C=C/C=C/C=C/C=C/C=C/C=C/C=C/[C@H](O[C@@H]2O[C@H](C)[C@@H](O)[C@H](N)[C@@H]2O)C[C@@H]2O[C@](O)(C[C@@H](O)C[C@@H](O)[C@H](O)CC[C@@H](O)C[C@@H](O)CC(=O)O[C@H]1C)C[C@H](O)[C@H]2C(=O)O` [Amphotericin B], the water solubility result is recorded as “around 0.1 mg per ml”.
